The record followed here is patent publication US8017124B2, “Use of DMBT1 for capturing sulphate and phosphate group exposing agents” (priority 2004, dated 2011).

Read-outs that look alike come from different tables or passages of the source.

Experiment [1] addresses T1, human recombinant DMBT1 (rDMBT1) (Homo sapiens, UniProt Q9UGM3, G1295S/L1336F/T649M).
T1 construct: made in house; purified from culture supernatant
Description: Turbidometric competition assay, rDMBT1-mediated Streptococcus gordonii aggregation. The format is binding. Conditions: 0.32% to 2.50% (w/v) DSS; 0.28% to 0.84% degraded carrageenan; rDMBT1 15 μg/ml. On the procedure:
(§1) Streptococcus gordonii (strain: […]) was cultured under anaerobic conditions as described before^17, harvested by centrifugation at 3,000 g, washed twice with PBS containing 10 mM EDTA and once with PBS and finally resuspended in PBS to a final OD700 of 2.0 corresponding to about 2.0×10^9 cells/ml, respectively.
(§2) Competition assays were carried out in a final volume of 500 μl at RT. Streptococcus gordonii (250 μl in PBS) was mixed with 100 μl synthetic peptide DMBT1-SRCRP2 diluted 1:1 in PBS (final concentration in the assay: 100 μg/ml) or 100 μl purified rDMBT1 in PBS (final concentration in the assay: 15 μg/ml) and 150 μl of the respective competitor stock solutions, so that the final concentrations ranged from 0.32% to 2.50% (w/v) DSS and 0.28% to 0.84% […] degraded carrageenan. Samples with 0.0% competitor served as controls. The samples were placed in a spectrophotometer (Anthelie; SECOMAN, France) and the OD700-value was measured in intervals of 3 minutes. Each experiment was at least done in triplicate. For the DSS competition studies, we used the same DSS as in the animal experiments (Mr=36-50 kDa; ICN Biomedicals Aurora). High molecular weight lambda carrageenan was obtained from Sigma (Taufkirchen; Germany). […]

A further experiment deals with T2, DMBT1-SRCRP2 (Homo sapiens, UniProt Q9UGM3).
T2 construct: purity >85%); purchased Eurogentec (Belgium); host or cells: chemical synthesis
Description: Turbidometric competition assay, DMBT1-SRCRP2-mediated bacterial aggregation. The format is binding. Conditions: 0.32% to 2.50% (w/v) DSS; 0.28% to 0.84% degraded carrageenan; peptide 100 μg/ml. How it is done:
as §1, §2

For the next experiment, the target named is T3, DMBT1pbs1 (Homo sapiens, UniProt Q9UGM3).
T3 construct: purchased Eurogentec, Belgium
The format is binding. The arrangement: key: +++: no difference in aggregation compared to reference; ++: moderate inhibition of aggregation over the entire time course or maximal aggregation delayed by 1-5-min compared to reference; +: strong inhibition of aggregation over the entire time course or maximal aggregation delayed by 5-10 min compared to reference; −: complete inhibition of aggregation after 10 min. Conditions: pH co. How it is done: Streptococcus mutans (Ingbritt), Streptococcus gordonii (HG 222 and DSM20568), Escherichia coli (F7 and OM36-1), and Helicobacter pylori (ATCC 43504) were gown and processed as described earlier. Salmonella typhimurium (strain SF1399: wild type; strain SF1195: Rc chemotype; strain SF1567: Rd1 chemotype; strain SF1398: Re chemotype) were kindly provided by Dr. Ben Appelmelk from the Free University of Amsterdam, The Netherlands, and were grown and processed as previously described for E. coli. The bacteria were diluted in the buffers depicted previously to a final OD700 of 0.5 or 1.0 corresponding to about 0.5 and 1.0×10^9 cells/ml respectively.
For quantitative measurements of bacterial aggregation, we added 200 μl peptide stock solution (1 mg/ml in 10% DMSO) diluted with 300 μl TBS containing 0.1% v/v Tween 20 and 1 mM CaCl2 (TBS-TC) to 500 μl of the respective bacterial suspensions to obtain final peptide concentrations of […]. As controls, we used bacterial suspensions, to which 200 μl 10% (v/v %) DMSO in H2O and 300 μl TBS-TC were added. Bacterial aggregation was monitored by measuring the optical density at 700 nm in intervals of 1 min for 1 h in a spectrophotometer (UVICON 930, Kontron Instruments). For the semi-quantitative high-throughput competition assays, we first determined the allowed pH range for DMBT1pbs1-mediated aggregation of S. gordonii and E. coli by using TBS-TC adjusted with either HCl or NaOH. […] For monitoring competitive effects, we preincubated 20 μl of the DMBT1pbs1 stock solution (20 μg) with 20 μl of the respective substance solutions in 48-well microtiter plates at room temperature (RT) for 2 min. As reference served 20 μl 10% (v/v) DMSO solution in H2O mixed with 20 μl of the solvents of the respective substances. Afterwards, 100 μl of S. gordonii or E. coli (resuspended in TBS-TC or TBS-T, respectively, for the calcium-free assays) solution was added simultaneously to each well using a multichannel pipette. Bacterial aggregation was compared to the reference by visual inspection over a time course of 10 min. The scoring system was: (+++) no difference in aggregation compared to reference. (++) moderate inhibition of aggregation over the entire time course or maximal aggregation delayed by 1-5-min compared to reference; (+) strong inhibition of aggregation over the entire time course or maximal aggregation delayed by 5-10 min compared to reference; (−) complete inhibition of aggregation after 10 min. Each experiment was at least done in triplicate.
Sucrose, maltose, dextrose, and the various salts tested were standard reagents obtained from Merck or Sigma. […] The following substances were obtained from Sigma with catalogue numbers in brackets: heparansulfate (H-7640), chondroitinsulfate B (C-3788), azoxymethane (A-9517), N-nitrosodiethlylamine (N-0258), streptococcus sanguis LTA (L-3765), Staphylococcus aureus LTA (L-2515), Escherichia coli LPS (L-3012), Klebsiella pneumoniae LPS (L-1770), Salmonella typhimurium LPS (L-6511), Salmonella minnesota LPS (chemotype Rd1; L-9391), L-α-phosphatidylcholine (P-279), CUROSURF™ with 80 mg/ml phospholipids from pig surfactant (54 mg/ml phosphatidylcholine and 30-5 mg/ml D-palmitoylphosphatidylcholine; overall: 99% polar phospholipids and 1% proteins) was obtained from Dey (Napa; Italy), and sIgA was purchased from Sigma. The dNTPs and the dNTP-Mix were from Roche Diagnostics. The DNA used in all experiments was the 4.7-kb plasmid pEGFP-N1 from Clontech.

The target in the next experiment is T4, human rDMBT1 (Homo sapiens, UniProt Q9UGM3, G1295S/L1336F/T649M).
T4 construct: made in house; purified from culture supernatant
T4 sequence (Q9UGM3 20-2413 T649M/G1295S/L1336F): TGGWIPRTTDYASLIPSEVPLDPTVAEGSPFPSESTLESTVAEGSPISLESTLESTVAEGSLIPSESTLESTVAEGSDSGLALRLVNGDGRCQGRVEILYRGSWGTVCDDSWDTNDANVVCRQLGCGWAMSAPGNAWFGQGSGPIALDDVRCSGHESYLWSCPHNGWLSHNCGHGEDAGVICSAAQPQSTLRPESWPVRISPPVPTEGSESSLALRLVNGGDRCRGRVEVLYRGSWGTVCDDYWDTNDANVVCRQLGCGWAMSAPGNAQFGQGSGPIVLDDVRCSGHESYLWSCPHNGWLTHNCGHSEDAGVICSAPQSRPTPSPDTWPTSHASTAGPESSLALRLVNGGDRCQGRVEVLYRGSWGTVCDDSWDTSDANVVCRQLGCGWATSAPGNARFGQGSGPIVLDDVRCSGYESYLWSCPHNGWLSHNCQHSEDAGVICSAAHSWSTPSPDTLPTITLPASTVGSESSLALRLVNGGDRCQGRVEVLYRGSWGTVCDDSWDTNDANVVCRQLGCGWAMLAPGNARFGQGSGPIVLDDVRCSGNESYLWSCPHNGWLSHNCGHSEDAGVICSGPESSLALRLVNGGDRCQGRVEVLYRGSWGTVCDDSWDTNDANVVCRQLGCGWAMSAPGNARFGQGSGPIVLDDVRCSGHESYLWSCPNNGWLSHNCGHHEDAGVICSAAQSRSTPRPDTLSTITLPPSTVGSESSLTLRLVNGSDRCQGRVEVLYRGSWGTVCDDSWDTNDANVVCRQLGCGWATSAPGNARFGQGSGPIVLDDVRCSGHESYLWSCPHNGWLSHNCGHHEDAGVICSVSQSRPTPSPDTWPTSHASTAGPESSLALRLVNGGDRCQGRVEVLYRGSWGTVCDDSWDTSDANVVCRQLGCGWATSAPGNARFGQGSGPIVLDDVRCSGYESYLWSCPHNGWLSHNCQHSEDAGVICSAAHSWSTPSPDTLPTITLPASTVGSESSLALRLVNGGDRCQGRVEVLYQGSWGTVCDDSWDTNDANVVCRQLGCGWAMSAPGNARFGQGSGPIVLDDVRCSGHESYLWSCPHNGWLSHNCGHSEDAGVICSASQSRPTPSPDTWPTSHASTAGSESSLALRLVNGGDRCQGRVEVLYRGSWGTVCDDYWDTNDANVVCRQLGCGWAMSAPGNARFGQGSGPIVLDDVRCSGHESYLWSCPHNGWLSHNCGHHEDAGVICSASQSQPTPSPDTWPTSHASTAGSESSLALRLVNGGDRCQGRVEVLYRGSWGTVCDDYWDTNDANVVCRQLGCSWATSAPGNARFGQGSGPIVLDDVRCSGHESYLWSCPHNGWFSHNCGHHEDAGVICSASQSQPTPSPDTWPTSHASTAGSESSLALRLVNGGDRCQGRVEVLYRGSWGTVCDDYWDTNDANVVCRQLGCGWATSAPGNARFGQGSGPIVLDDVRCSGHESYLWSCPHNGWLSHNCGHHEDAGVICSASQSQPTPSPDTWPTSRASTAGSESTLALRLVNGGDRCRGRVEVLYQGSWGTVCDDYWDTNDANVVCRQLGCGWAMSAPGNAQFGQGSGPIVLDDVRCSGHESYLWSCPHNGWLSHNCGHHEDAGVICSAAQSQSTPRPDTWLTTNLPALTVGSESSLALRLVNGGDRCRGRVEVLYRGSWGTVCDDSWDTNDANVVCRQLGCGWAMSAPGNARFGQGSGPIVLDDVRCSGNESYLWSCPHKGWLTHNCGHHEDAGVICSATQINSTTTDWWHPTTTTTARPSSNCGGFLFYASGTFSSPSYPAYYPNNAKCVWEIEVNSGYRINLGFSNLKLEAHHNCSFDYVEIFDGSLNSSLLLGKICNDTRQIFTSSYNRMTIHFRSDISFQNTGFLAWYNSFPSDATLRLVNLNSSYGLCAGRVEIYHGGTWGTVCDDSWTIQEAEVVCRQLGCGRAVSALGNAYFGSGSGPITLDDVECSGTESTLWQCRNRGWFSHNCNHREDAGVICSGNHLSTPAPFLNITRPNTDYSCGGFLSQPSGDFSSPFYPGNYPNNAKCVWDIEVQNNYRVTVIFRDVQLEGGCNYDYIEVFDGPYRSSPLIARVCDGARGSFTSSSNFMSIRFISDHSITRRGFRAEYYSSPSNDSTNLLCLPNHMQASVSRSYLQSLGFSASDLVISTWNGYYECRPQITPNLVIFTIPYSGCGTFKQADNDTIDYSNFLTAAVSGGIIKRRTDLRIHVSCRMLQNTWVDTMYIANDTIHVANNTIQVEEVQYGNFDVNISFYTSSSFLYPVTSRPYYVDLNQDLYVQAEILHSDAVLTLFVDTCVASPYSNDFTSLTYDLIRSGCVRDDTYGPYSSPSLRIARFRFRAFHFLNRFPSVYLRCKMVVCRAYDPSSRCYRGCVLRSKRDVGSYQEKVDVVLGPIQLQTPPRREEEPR
Description: Binding of human rDMBT1 to immobilized DSS and degraded lambda carrageenan. Conditions: rDMBT1 10 μg/ml; immobilized substance. How it is done:
DSS was serially diluted in coating buffer (100 mM carbonate buffer, pH 9.6) to obtain final concentrations of 2.5% to 0.02% (w/v). One hundred μl of the samples were applied onto ELISA plates (Microlon, F-Form; Greiner, Germany) and coating was done at 4° C. for 16 h. Acid hydrolyzed and pH-adjusted lambda carrageenan was serially diluted with the solvent (approximately 50 mM HCl and 50 mM NaOH) to obtain concentrations ranging from 2.8% to 0.0055% […] and coating of ELISA plates was done at 37° C. for 2 h. After coating and three washes with TBS containing 0.1% (v/v) Tween 20 (TBS-T), rDMBT1 (10 μg/ml in TBS-T) was added to each well and incubated at 37° C. for 1 h. The wells were then washed five times with 200 μl TBS-T, incubated at 37° C. for 1 h with the DMBT1-specific mouse monoclonal antibody anti(A2) gp-340 (Hyb213-06; Antibody-Shop; dilution 1:10,000 in TBS-T), washed again five-times with TBS-T, and incubated at 37° C. for 1 h with a rabbit anti-mouse IgG-HRP conjugate (Jackson; dilution 1:10,000 in TBS-T). Subsequent to five washes with TBS-T, 150 μl substrate (125 μg/ml 3,3′,5′-Tetramethyl-benzidine; in 0.1 M citrate buffer pH 4.5 with 0.05% (v/v) H2O2) were added, and after incubation at RT for 10-15 min the reaction was stopped by addition of […] 2 M HCl. The intensity of the dye reaction was measured at 450 nm in an ELISA reader (EL800; Bio-Tec Instruments Inc.). […]

The target of experiment [2] is T5, rDMBT1 binding to HIV-gp120 (Homo sapiens, UniProt Q9UGM3, G1295S/L1336F/T649M).
T5 construct: made in house; host or cells: rDMBT1 from T-REx-CHO
Description: Effects of DSS and dextran on rDMBT1 binding to HIV-gp120. Conditions: 100 μg/ml DSS or dextran; rDMBT1 2 μg/ml; gp120 1 μg/ml. The text has this: Values are means of five independent experiments.

Another experiment has as its target T6, DMBT1 (Homo sapiens, UniProt Q9UGM3).
T6 construct: was obtained from parotid saliva of healthy volunteer donors collected with Lashley cups; from tissue; host or cells: parotid saliva of healthy volunteer donors, purified to about 95% homogeneity
Description: Binding of DMBT1/rDMBT1 to immobilized candidate substances (ELISA). Conditions: substance immobilized; DMBT1 or rDMBT1 10 μg/ml. How it is done: For the peptide binding studies we used, unless otherwise indicated, 20 μg/ml peptide in a total volume of 100 μl (dilution in coating buffer, 100 mM carbonate buffer, pH 9.6) for the coating of high affinity ELISA plates (Microlon, Fluotrac 600; Greiner). When immobilizing rDMBT1, purified, partially purified DMBT1 or substances to be tested, we applied serial dilutions in coating buffer onto the plates. Coating was done at 4° C. for 16 h and was followed by three washes with PBS-T with 1 mM CaCl2 (PBS-TC). For the analysis of bacterial binding to immobilized peptides or protein, we incubated the wells with 100 μl bacterial solution at 37° C. for 2 h. After removal of unbound bacteria, 100 μl of SYTO-9 solution (Molecular Probes), which is a cell-permeable fluorescent DNA dye, was added, plates were incubated in the dark for 15 min and after three washes with PBS-TC, fluorescence was measured by determination of the emission at 535 nm with a microtiter plate reader (488 n=excitation; Fluostar Galaxy, BMG Laboratories). DNA binding to immobilized DMBT1 was analyzed by using the same plasmid (LPS-free preparation) as used for the competitive aggregation and transfection assays (see below). Bound DNA was detected analogous to detection of bacteria except for using SYTQ-13 as dye. […]
Background: In an ELISA, binding on a coated surface is turned into a signal by an enzyme label.

T1 sequence (Q9UGM3 20-2413 T649M/G1295S/L1336F): as above

Regarding Degraded lambda-carrageenan, in experiment [1], the “Inhibitory effects on rDMBT1-mediated Streptococcus gordonii aggregation” value is recorded as “Inhibitory effects”. Moreover, the “Inhibitory effects on bacterial aggregation mediated by DMBT1-SRCRP2” value on DMBT1-SRCRP2 is “Inhibitory effects”. For the same substance, on DMBT1pbs1 (substance 0.05 mg/ml), the “Aggregation of E. coli” value is reported as “+++” and the “Aggregation of S. gordonii” value is recorded as “++”. Further, at DMBT1pbs1 (substance 0.1 mg/ml), the “Aggregation of S. gordonii” value is recorded as “+”. The “direct interaction with human DMBT1 (competition and binding studies in vitro)” value at human rDMBT1 is on record as “directly interacted”.
On to “Dextran sulfate sodium [Dextran sulfate sodium (DSS)]”, for which, in experiment [1], the “Inhibitory effects on rDMBT1-mediated Streptococcus gordonii aggregation” value is listed as “Inhibitory effects”. In addition, the “Inhibitory effects on bacterial aggregation mediated by DMBT1-SRCRP2” value at DMBT1-SRCRP2 is listed as “Inhibitory effects”. On DMBT1pbs1 (substance 10-50 mg/ml), the “Aggregation of E. coli” value is on record as “−” and the “Aggregation of S. gordonii” value is recorded as “−”. The “direct interaction with human DMBT1 (competition and binding studies in vitro)” value at human rDMBT1 is “directly interacted”. Also, the “inhibition of rDMBT1 binding to immobilized HIV-gp120” value in experiment [2] is given as “exerted an inhibitory effect”.
Regarding lipopolysaccharide [LPS], the “binding to DMBT1” value on DMBT1 was “showed binding to DMBT1”.
Still for that read-out and setting: with lipoteichoic acid [LTA] the entry was “showed binding to DMBT1”.
